In patent US20240190891A1, “PYRIDO OXAZINE AMINO DERIVATIVES AS ALK5 INHIBITORS” (CHIESI FARMACEUTICI S.P.A., priority 2020, published 2024):

Biological target: T1, human ALK5 (Homo sapiens, UniProt P36897)
T1 construct: human ALK5 (recombinant TGF β1 N-term GST-tagged, 80-end); GST (N); purchased
T1 sequence (P36897 80-503 limits assumed): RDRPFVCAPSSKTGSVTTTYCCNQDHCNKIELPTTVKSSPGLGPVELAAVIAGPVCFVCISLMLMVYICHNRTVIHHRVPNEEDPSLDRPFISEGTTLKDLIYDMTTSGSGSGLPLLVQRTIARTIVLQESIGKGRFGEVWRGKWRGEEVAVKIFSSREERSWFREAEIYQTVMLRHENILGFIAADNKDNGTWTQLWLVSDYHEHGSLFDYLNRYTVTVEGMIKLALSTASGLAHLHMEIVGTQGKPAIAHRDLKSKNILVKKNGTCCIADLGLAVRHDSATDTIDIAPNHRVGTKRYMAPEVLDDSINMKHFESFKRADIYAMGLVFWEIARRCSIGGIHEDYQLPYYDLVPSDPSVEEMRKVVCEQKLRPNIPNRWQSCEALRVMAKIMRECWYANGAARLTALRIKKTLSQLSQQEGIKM
Experiment: ADP-GLO Kinases assay, inhibitory activity on ALK5
Assay type: biochemical
Settings: Table 10; purified recombinant human ALK5 2.6 nM, ADP-Glo, 25° C., 150 min incubation
Experimental: The enzymatic activity of compounds of the present invention was monitored measuring the formation of ADP using the ADP-GLO Kinases assay. Following the incubation of the purified enzyme, a substrate and ATP, the produced ADP was converted into ATP, which in turn was converted into light by Ultra-Glo Luciferase. The luminescent signal positively correlated with ADP amount and kinase activity. Briefly, the kinase reaction was performed by incubating 2.6 nM of the purified, commercially available human ALK5 (recombinant TGF β1 N-term GST-tagged, 80-end), a final concentration of TGFβ1 peptide 94.5 μM (Promega, T36-58) and ultra-pure ATP (Promega V915B). The ATP concentration was set at the Km value (concentration of substrate which permits the enzyme to achieve half maximal velocity (Vmax)) of ALK5 (5 μM). All reactions/incubations were performed at 25° C. Compound and ALK5 kinase were mixed and incubated for 15 mins. Reactions were initiated by addition of ATP at a final concentration in the assay of 0.83 μM. After an incubation of 150 min, the reaction was stopped, and ADP production detected with ADP-Glo kit according to manufacturer's indications. The assay was performed in 384-well format and was validated using a selection of reference compounds that was tested in 11 point concentration-response curve.
Compounds of the examples C1, C2 and C3 were tested in the same in vitro assay described above.

Compound	IC50
Nc1cnccc1Nc1cc(-c2cc(Cl)ccc2F)nc2c1OCCN2 [Example 7, N4-[6-(5-chloro-2-fluorophenyl)-2H,3H,4H-pyrido[3,2-b][1,4]oxazin-8-yl]pyridine-3,4-diamine]	1 to 5 nM
CN(C)CCC(=O)Nc1cc(Nc2cc(-c3cc(Cl)ccc3F)nc3c2OCCN3)ccn1 [Example 34, N-(4-{[6-(5-chloro-2-fluorophenyl)-2H,3H,4H-pyrido[3,2-b][1,4]oxazin-8-yl]amino}pyridin-2-yl)-3-(dimethylamino)propanamide]	< 1 nM
O=C(NCCN1CCOCC1)c1cnccc1Nc1cc(-c2cc(Cl)ccc2F)nc2c1OCCN2 [Example 9, 4-{[6-(5-chloro-2-fluorophenyl)-2H,3H,4H-pyrido[3,2-b][1,4]oxazin-8-yl]amino}-N-[2-(morpholin-4-yl)ethyl]pyridine-3-carboxamide]	1 to 5 nM
CN(C)CCNC(=O)c1cnccc1Nc1cc(-c2cc(Cl)ccc2F)nc2c1OCCN2 [Example 10, 4-{[6-(5-chloro-2-fluorophenyl)-2H,3H,4H-pyrido[3,2-b][1,4]oxazin-8-yl]amino}-N-[2-(dimethylamino)ethyl]pyridine-3-carboxamide]	< 1 nM
Fc1ccc(Cl)cc1-c1cc(Nc2ccncc2)c2c(n1)NCCO2 [Example 1, N-[6-(5-chloro-2-fluorophenyl)-2H,3H,4H-pyrido[3,2-b][1,4]oxazin-8-yl]-pyridine-4-amine]	< 1 nM
Cc1cccc(-c2cc(Nc3ccnc4[nH]ccc34)c3c(n2)NCCO3)n1 [Example 45, 6-(6-methylpyridin-2-yl)-N-{1H-pyrrolo[2,3-b]pyridin-4-yl}-2H,3H,4H-pyrido[3,2-b][1,4]oxazin-8-amine]	< 1 nM
CNCCNC(=O)c1cnccc1Nc1cc(-c2cc(Cl)ccc2F)nc2c1OCCN2 [Example 21, 4-{[6-(5-chloro-2-fluorophenyl)-2H,3H,4H-pyrido[3,2-b][1,4]oxazin-8-yl]amino}-N-[2-(methylamino)ethyl]pyridine-3-carboxamide]	< 1 nM
Fc1ccc(-c2cc(Nc3ccncc3)c3c(n2)NCCO3)nc1 [Example 26, N-[6-(5-fluoropyridin-2-yl)-2H,3H,4H-pyrido[3,2-b][1,4]oxazin-8-yl]pyridin-4-amine]	5 to 10 nM
COC(=O)c1cnccc1Nc1cc(-c2cc(Cl)ccc2F)nc2c1OCCN2 [Example 17, methyl 4-{[6-(5-chloro-2-fluorophenyl)-2H,3H,4H-pyrido[3,2-b][1,4]oxazin-8-yl]amino}pyridine-3-carboxylate]	< 1 nM
O=C(NC1CCNCC1)c1cnccc1Nc1cc(-c2cc(Cl)ccc2F)nc2c1OCCN2 [Example 24, 4-{[6-(5-chloro-2-fluorophenyl)-2H,3H,4H-pyrido[3,2-b][1,4]oxazin-8-yl]amino}-N-(piperidin-4-yl)pyridine-3-carboxamide]	< 1 nM
CNC(=O)c1cnccc1Nc1cc(-c2cc(Cl)ccc2F)nc2c1OCCN2 [Example 2, 4-{[6-(5-chloro-2-fluorophenyl)-2H,3H,4H-pyrido[3,2-b][1,4]oxazin-8-yl]amino}-N-methylpyridine-3-carboxamide]	< 1 nM
COC(=O)c1cnccc1Nc1cc(-c2cccc(C)n2)nc2c1OCCN2 [Example 30, methyl 4-{[6-(6-methylpyridin-2-yl)-2H,3H,4H-pyrido[3,2-b][1,4]oxazin-8-yl]amino}pyridine-3-carboxylate]	< 1 nM
CN1CCC(NC(=O)c2cnccc2Nc2cc(-c3cc(Cl)ccc3F)nc3c2OCCN3)CC1 [Example 32, 4-{[6-(5-chloro-2-fluorophenyl)-2H,3H,4H-pyrido[3,2-b][1,4]oxazin-8-yl]amino}-N-(1-methylpiperidin-4-yl)pyridine-3-carboxamide]	< 1 nM

More lines, now with the values ahead:

IC50	Compound
5 to 10 nM	Fc1ccc(-c2cc(Nc3ccncc3)c3c(n2)NCCO3)cc1Cl [Example 19, N-[6-(3-chloro-4-fluorophenyl)-2H,3H,4H-pyrido[3,2-b][1,4]oxazin-8-yl]pyridin-4-amine]
< 1 nM	COC(=O)c1cc2c(Nc3cc(-c4cc(Cl)ccc4F)nc4c3OCCN4)ccnc2[nH]1 [Example 38, methyl 4-{[6-(5-chloro-2-fluorophenyl)-2H,3H,4H-pyrido[3,2-b][1,4]oxazin-8-yl]amino}-1H-pyrrolo[2,3-b]pyridine-2-carboxylate]
1 to 5 nM	CN(C)CCOC(=O)c1cnccc1Nc1cc(-c2cc(Cl)ccc2F)nc2c1OCCN2 [Example 27, 2-(dimethylamino)ethyl 4-{[6-(5-chloro-2-fluorophenyl)-2H,3H,4H-pyrido[3,2-b][1,4]oxazin-8-yl]amino}pyridine-3-carboxylate]
< 1 nM	O=C(NCCN(CCO)CCO)c1cnccc1Nc1cc(-c2cc(Cl)ccc2F)nc2c1OCCN2 [Example 37, N-{2-[bis(2-hydroxyethyl)amino]ethyl}-4-{[6-(5-chloro-2-fluorophenyl)-2H,3H,4H-pyrido[3,2-b][1,4]oxazin-8-yl]amino}pyridine-3-carboxamide]
< 1 nM	O=C(CCN1CCOCC1)Nc1cc(Nc2cc(-c3cc(Cl)ccc3F)nc3c2OCCN3)ccn1 [Example 20, N-(4-{[6-(5-chloro-2-fluorophenyl)-2H,3H,4H-pyrido[3,2-b][1,4]oxazin-8-yl]amino}pyridin-2-yl)-3-(morpholin-4-yl)propanamide]
1 to 5 nM	Nc1cc(Nc2cc(-c3cc(Cl)ccc3F)nc3c2OCCN3)ccn1 [Example 3, N4-[6-(5-chloro-2-fluorophenyl)-2H,3H,4H-pyrido[3,2-b][1,4]oxazin-8-yl]pyridine-2,4-diamine]
1 to 5 nM	Fc1ccc(F)c(-c2cc(Nc3ccncc3)c3c(n2)NCCO3)c1 [Example 14, N-[6-(2,5-difluorophenyl)-2H,3H,4H-pyrido[3,2-b][1,4]oxazin-8-yl]pyridin-4-amine]

Same assay, conditions: Table 11, comparative examples; same in vitro assay

IC50	Compound
6500 nM	Fc1ccc(Cl)cc1-c1cc(-c2ccncc2)c2c(n1)NCCO2 [Example C1, 4-[6-(5-chloro-2-fluorophenyl)-2H,3H,4H-pyrido[3,2-b][1,4]oxazin-8-yl]pyridine, reference compound]
1700 nM	Oc1ccc(-c2cc(-c3cc(Cl)ccc3F)nc3c2OCCN3)cc1 [Example C2, 4-[6-(5-chloro-2-fluorophenyl)-2H,3H,4H-pyrido[3,2-b][1,4]oxazin-8-yl]phenol, reference compound]
